The record followed here is ChEMBL document CHEMBL1147909, “Methylenedisalicylic acid derivatives: new PTP1B inhibitors that confer resistance to diet-induced obesity” (Bioorg Med Chem Lett, 2007).

pIC50, pKi: −log10 of the molar value.

For experiment [1], the target named is T1, Tyrosine-protein phosphatase non-receptor type 1 (Homo sapiens, UniProt P18031).
T1 sequence (P18031 whole entry): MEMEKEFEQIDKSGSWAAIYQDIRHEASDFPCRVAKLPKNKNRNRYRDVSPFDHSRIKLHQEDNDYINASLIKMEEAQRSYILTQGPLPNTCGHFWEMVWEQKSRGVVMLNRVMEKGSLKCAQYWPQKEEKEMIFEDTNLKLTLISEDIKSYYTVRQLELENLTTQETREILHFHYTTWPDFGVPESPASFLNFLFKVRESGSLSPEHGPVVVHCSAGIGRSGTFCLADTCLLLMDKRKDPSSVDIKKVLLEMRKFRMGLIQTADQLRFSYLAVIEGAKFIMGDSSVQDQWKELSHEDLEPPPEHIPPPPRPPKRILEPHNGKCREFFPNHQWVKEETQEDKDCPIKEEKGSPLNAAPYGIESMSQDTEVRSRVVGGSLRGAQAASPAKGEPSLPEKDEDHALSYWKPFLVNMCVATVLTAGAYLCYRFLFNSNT
Description: Inhibition of PTP1B after 10 mins.

Experiment [2] can be described thus: Inhibition of LAR Tyrosine phosphatase D1. Details: species or system Homo sapiens.
The target in experiment [3] is T2, Tyrosine-protein phosphatase non-receptor type 2 (Homo sapiens, UniProt P17706).
T2 sequence (P17706 whole entry): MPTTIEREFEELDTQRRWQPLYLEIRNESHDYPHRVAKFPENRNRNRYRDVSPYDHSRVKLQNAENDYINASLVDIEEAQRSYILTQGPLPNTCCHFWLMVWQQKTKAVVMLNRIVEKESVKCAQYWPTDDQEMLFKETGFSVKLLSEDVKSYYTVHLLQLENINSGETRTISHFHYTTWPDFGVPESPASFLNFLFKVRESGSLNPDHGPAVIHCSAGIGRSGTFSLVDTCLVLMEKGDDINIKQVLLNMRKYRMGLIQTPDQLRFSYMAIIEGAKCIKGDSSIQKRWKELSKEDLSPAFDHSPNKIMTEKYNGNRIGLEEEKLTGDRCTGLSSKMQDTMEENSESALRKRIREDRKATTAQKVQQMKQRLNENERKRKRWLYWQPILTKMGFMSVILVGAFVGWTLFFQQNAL
Description: Inhibition of TC-PTP.

For experiment [4], the target named is T3, Tyrosine-protein phosphatase 1 (Saccharomyces cerevisiae S288c, UniProt P25044).
T3 sequence (P25044 whole entry): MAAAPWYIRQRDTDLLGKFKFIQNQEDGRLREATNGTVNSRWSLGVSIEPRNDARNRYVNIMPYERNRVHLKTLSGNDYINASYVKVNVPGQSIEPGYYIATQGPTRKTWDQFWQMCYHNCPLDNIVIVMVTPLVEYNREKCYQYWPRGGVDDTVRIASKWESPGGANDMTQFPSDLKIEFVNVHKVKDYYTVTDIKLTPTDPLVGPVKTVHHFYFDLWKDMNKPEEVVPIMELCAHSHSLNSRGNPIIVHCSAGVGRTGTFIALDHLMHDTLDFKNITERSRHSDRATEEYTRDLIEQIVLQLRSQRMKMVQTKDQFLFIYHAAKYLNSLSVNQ
Briefly: Inhibition of yeast PTP1.

For experiment [5], the target named is Tyrosine-protein phosphatase non-receptor type 6 (Homo sapiens, UniProt P29350). Description: Inhibition of SHP-1 catalytic domain.
A further experiment is filed under the species Homo sapiens. Briefly: Selectivity for PTP1B over TC-PTP.
The subject of experiment [6] is Mus musculus. Briefly: Effect on high fat diet induced obesity in C57BL/6J Jms Slc mouse assessed as body weight at 5 g/kg. In kind it is functional.
Experiment [7] concerns Mus musculus. Description: Effect on high fat diet induced obesity in C57BL/6J Jms Slc mouse assessed as liver weight at 5 g/kg. In kind it is functional.
The test system of experiment [8] is Mus musculus. Briefly: Effect on high fat diet induced obesity in C57BL/6J Jms Slc mouse assessed as epididymal adipose tissue weight at 5 g/kg. In kind it is functional.
Experiment [9] concerns Mus musculus. Description: Effect on high fat diet induced obesity in C57BL/6J Jms Slc mouse assessed as retroperitoneal adipose tissue weight at 5 g/kg. In kind it is functional.

Sequence of Tyrosine-protein phosphatase non-receptor type 6 (P29350 whole entry, the tested form may be a part): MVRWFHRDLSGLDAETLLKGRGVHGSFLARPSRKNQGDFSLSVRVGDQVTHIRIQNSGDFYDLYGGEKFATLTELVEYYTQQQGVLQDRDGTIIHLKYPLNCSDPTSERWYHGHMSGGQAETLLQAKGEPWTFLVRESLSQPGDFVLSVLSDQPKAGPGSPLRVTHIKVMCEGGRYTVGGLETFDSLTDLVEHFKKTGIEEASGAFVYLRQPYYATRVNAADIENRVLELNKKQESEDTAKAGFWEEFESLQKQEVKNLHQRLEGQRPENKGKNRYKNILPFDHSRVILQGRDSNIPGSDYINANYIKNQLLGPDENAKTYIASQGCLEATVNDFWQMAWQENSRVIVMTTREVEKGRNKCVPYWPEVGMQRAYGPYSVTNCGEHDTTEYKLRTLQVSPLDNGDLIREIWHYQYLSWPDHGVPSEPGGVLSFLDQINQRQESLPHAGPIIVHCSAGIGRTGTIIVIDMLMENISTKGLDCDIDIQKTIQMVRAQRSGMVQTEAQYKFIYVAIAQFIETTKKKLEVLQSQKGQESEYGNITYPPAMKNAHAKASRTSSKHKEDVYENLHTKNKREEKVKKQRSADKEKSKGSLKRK

With `O=C(O)c1cc(Cc2cc(Br)c(O)c(C(=O)O)c2)cc(Br)c1O`, the pIC50 in [1] was 4.11.
Turning to `O=C(O)c1cc(Cc2cc(Cl)c(O)c(C(=O)O)c2)cc(Cl)c1O`, the negative logarithm of the IC50 (pIC50) in [1] is 3.62.
Turning to `O=C(O)c1cc(Cc2cc(C(=O)O)c(O)c(-c3ccccc3)c2)cc(-c2ccccc2)c1O`, the pIC50 in experiment [2] is below 2.70; in experiment [1], 4.70; in experiment [3], 3.54; in [4] it was 3.63; in experiment [5] it was 4.29. The figures for the negative-log Ki (pKi) in experiment [1], in [3] and in experiment [5] were 5.03, 4.19 and 4.77, respectively. Also, the Selectivity ratio in the experiment filed under Homo sapiens was above 10. The Activity in the experiment with Mus musculus [6] is on record as 29.2 g; in the experiment with Mus musculus [7], 1.03 g; with Mus musculus [8], 0.86 g; with Mus musculus [9], 0.26 g.
In experiment [1], `O=C(O)C(=O)Nc1sc2c(c1C(=O)O)CCNC2` gave a pIC50 of 3.30 and a negative logarithm of the Ki (pKi) of 4.94.
As for `O=C(O)c1cc(Cc2cc(C(=O)O)c(O)c(-c3ccco3)c2)cc(-c2ccco2)c1O`, the pIC50 in [1] was 4.41.
On the same count and under the same terms, the value for `Cc1cc(Cc2cc(C)c(O)c(C(=O)O)c2)cc(C(=O)O)c1O` was below 3.00; that for `COc1cc(Cc2cc(OC)c(O)c(C(=O)O)c2)cc(C(=O)O)c1O` was below 3.00.
As to `O=C(O)c1cc(Cc2cc(Cc3ccccc3)c(O)c(C(=O)O)c2)cc(Cc2ccccc2)c1O`, the negative-log IC50 (pIC50) in experiment [2] is below 2.70; in experiment [1], 4.82; in [3], 3.84; in [4], 3.99; in experiment [5], 4.49. For the same compound, the values for the pKi in [1], in experiment [3] and in [5] were 5.20, 4.60 and 4.85, respectively. In the experiment listed under Homo sapiens, the Selectivity ratio was above 10.
